Experimental data as given in a compilation of properties of binary mixtures (doi:10.1016/j.fluid.2019.112324).

Assay: xn = mol fraction of the nth substance listed
Conditions: 100 kPa

CCCCCC[n+]1ccn(C)c1.O=[N+]([O-])[O-] + CCCC(C)O
viscosity [mPa·s]
Conditions | 293.15 K | 298.15 K | 303.15 K | 308.15 K | 313.15 K | 318.15 K | 323.15 K
x1 = 0.0814 | 8.28 | 6.18 | – | 3.48 | – | 2.12 | –
x1 = 0.1609 | 14.69 | – | 7.26 | 5.08 | 3.72 | 2.81 | 2.11
x1 = 0.2408 | – | 16.18 | 11.09 | 7.43 | 5.31 | 3.76 | 2.74
x1 = 0.3491 | 42.8 | 29 | 19.05 | 12.22 | 8.55 | 5.85 | 4.09
x1 = 0.4393 | 69 | 44.8 | 29.4 | 18.45 | 12.22 | 8.65 | 6.05
x1 = 0.5608 | 122.5 | 79.4 | 50.9 | 32 | 21.2 | 14.52 | 10.28
x1 = 0.6509 | 177 | 117.2 | 76.9 | 49.3 | 33 | 22.4 | –
x1 = 0.7401 | – | 173.4 | – | – | 50.1 | 34.9 | 25.8
x1 = 0.8508 | – | 285 | 189 | 125.3 | 85.7 | 61.8 | 47.3
x1 = 0.9393 | 614 | 416 | 282 | 195 | 136.2 | 99.7 | 76.9
x1 = 1 | 804 | 545 | 369 | 258 | 186 | 140.2 | –

CCCC(C)O (configuration not stated) + CCCCCC[n+]1ccn(C)c1.O=[N+]([O-])[O-]
x2 = 0
Conditions | viscosity [mPa·s]
293.15 K | 3.97
298.15 K | 3.32
303.15 K | 2.81
308.15 K | 2.37
313.15 K | 1.99
318.15 K | 1.66
